{"source": "patent US8937096B2", "about": "“Use of benzo-fused heterocyle sulfamide derivatives for the treatment of mania and bipolar disorder” (priority 2005, dated 2015)", "key": {"[1]": {"test_system": "stressed and non-stressed animals", "test": "Resident/Intruder Assay (Chronic Social Stress Assay)", "format": "in vivo", "conditions": "10 mg/kg p.o.", "excerpt": "The behavioral resident/intruder assay is used to screen compounds for anti-depressant-like activity."}, "Sprague Dawley rats": {"test_system": "Sprague Dawley rats", "test": "Forced Swim Test (Acute)", "format": "in vivo, rat", "conditions": "p.o.", "method": "The Forced Swim test (FST) is a commonly used procedure to screen compounds for possible antidepressant properties. This test is also known as the behavioral despair test. Rodents placed in […] tanks filled with water present a wide variety of escape or immobility behaviors. Antidepressant drugs from different classes markedly increase escape behaviors and/or decrease latency or duration of immobility.\nVenlafaxine and desipramine were dissolved in water. All drugs and their vehicles were administered orally (p.o.) by gavage in a volume of 5 mL/kg.\nMale Sprague Dawley rats (140 to 160 g) from Charles River Laboratories Wilmington, Mass. were used. The animals went through a five-day quarantine period before being subjected to the experimental procedure.\nAnimals were housed in groups of four in plastic cages at an ambient temperature of 21° C. to 23° C. with an automated 12 hour light/dark cycle and access to water and commercial rodent food ad libitum. Animals were not handled more than for the routine bedding change prior to pre-test swim session.\nEach experiment consisted of seven treatment groups with n=4 animals per group. A total of 28 animals per experiment were used. Two consecutive experiments (1 and 2, 3 and 4, and 5 and 6) were exact replicas of each other. […] One treatment group of n=4 animals in each experiment was a vehicle treated group. […] In experiments 5 and 6 the effects of venlafaxine and maprotyline at 12 mg/kg, 30 mg/kg, and 60 mg/kg were tested.\nThe basic apparatus consisted of a cylinder (46 cm tall×˜20 cm diameter) filled with water to 30 cm deep, at a temperature of 25±1° C. The automated version of the FST was used to perform the experiments. Plumbing for automatic filling and emptying water connected the four cylinders. Cylinders were placed in the dividing chambers 25 cm wide to separate animals visually. Each 5-minute experimental session was videotaped and analyzed in real time by computer software (Clever Systems, Inc.) for four animals at a time. The immobility, swimming, climbing and escape times were recorded by the software. The four activities are defined as follow. Immobility: the animal floats motionlessly or makes only those movements necessary to keep its head above water; Climb: the animal vigorously moves vertically while scratching the wall around the cylinder; Swim: the animal moves horizontally around in the cylinder more than necessary to keep its head above water; and Escape: sum of all vigorous active movements.\nThe ability of a test compound to decrease the duration or frequency of immobility, or changes in swimming, climbing and escape times, was measured using the FST procedure described above. […] The analysis of the results in the studies described was focused on the immobility time during 5-minute test session.\nThere were two swim sessions in each experiment. First, a pre-test swim session for 15 minutes was performed. Following 48 hours later was a test session of 5-minute duration. Upon completion of a swim session, each animal was placed under a heat lamp in a cage with soft bedding for approximately 15 minutes to prevent hypothermia.\nAnimals were pre-treated with a vehicle or test compound after completing the pre-test swim session, then 24 hours later and then shortly prior to the 5-minute test session; i.e., three injections were given to each animal between the two swim sessions that occurred on 3 consecutive days.\nData were analyzed using GraphPad Prism software (GraphPad Software, Inc. San Diego, Calif.). For the comparison of the effect of different doses for various drugs on immobility in the FST one-way ANOVA was used followed by Dunnett's multiple comparison test. […] The ED50 and Emax values were statistically compared using two-tail t-test."}}, "data": [{"smiles": "COc1ccc(C(CN(C)C)C2(O)CCCCC2)cc1", "note": "(stereo not shown) [Venlafaxine, venlafaxine, reference compound]", "values": [{"measurement": "Forced Swim Test: Immobility during 5 min: Week 5 Mean ± SD", "setting": "[1]; non-stressed", "value": "181.8 ± 27.6"}, {"measurement": "Sucrose Intake Mean ± SD Week 3", "setting": "[1]; non-stressed", "value": "88.4 ± 9.1"}, {"measurement": "Sucrose Intake Mean ± SD Week 4", "setting": "[1]; non-stressed", "value": "91.5 ± 5.6"}, {"measurement": "Sucrose Intake Mean ± SD Week 5", "setting": "[1]; non-stressed", "value": "87.9 ± 15.0"}, {"measurement": "Locomotor Mean ± SD", "setting": "[1]; non-stressed, week 1", "value": "9094.9 ± 1832.7"}, {"measurement": "Rearing Mean ± SD", "setting": "[1]; non-stressed, week 1", "value": "48.3 ± 11.2"}, {"measurement": "Sniffing Down Mean ± SD", "setting": "[1]; non-stressed, week 1", "value": "27.1 ± 5.2"}, {"measurement": "Sniffing Up Mean ± SD", "setting": "[1]; non-stressed, week 1", "value": "43.3 ± 8.9"}, {"measurement": "Locomotor Mean ± SD", "setting": "[1]; non-stressed, week 5", "value": "8078.6 ± 1665.2"}, {"measurement": "Rearing Mean ± SD", "setting": "[1]; non-stressed, week 5", "value": "40.1 ± 8.9"}, {"measurement": "Sniffing Down Mean ± SD", "setting": "[1]; non-stressed, week 5", "value": "27 ± 4.7"}, {"measurement": "Sniffing Up Mean ± SD", "setting": "[1]; non-stressed, week 5", "value": "38.6 ± 7.7"}, {"measurement": "Forced Swim Test: Immobility during 5 min: Week 5 Mean ± SD", "setting": "[1]; stressed", "value": "190.4 ± 36.8"}, {"measurement": "Sucrose Intake Mean ± SD Week 3", "setting": "[1]; stressed", "value": "74.5 ± 16.7"}, {"measurement": "Sucrose Intake Mean ± SD Week 4", "setting": "[1]; stressed", "value": "76.1 ± 18.2"}, {"measurement": "Sucrose Intake Mean ± SD Week 5", "setting": "[1]; stressed", "value": "73.3 ± 17.6"}, {"measurement": "Locomotor Mean ± SD", "setting": "[1]; stressed, week 1", "value": "6233.6 ± 1087.2"}, {"measurement": "Rearing Mean ± SD", "setting": "[1]; stressed, week 1", "value": "30.8 ± 6.6"}, {"measurement": "Sniffing Down Mean ± SD", "setting": "[1]; stressed, week 1", "value": "14.9 ± 3.5"}, {"measurement": "Sniffing Up Mean ± SD", "setting": "[1]; stressed, week 1", "value": "28.6 ± 6.5"}, {"measurement": "Locomotor Mean ± SD", "setting": "[1]; stressed, week 5", "value": "6250.1 ± 789.2"}, {"measurement": "Rearing Mean ± SD", "setting": "[1]; stressed, week 5", "value": "35.1 ± 7.4"}, {"measurement": "Sniffing Down Mean ± SD", "setting": "[1]; stressed, week 5", "value": "18.3 ± 3.6"}, {"measurement": "Sniffing Up Mean ± SD", "setting": "[1]; stressed, week 5", "value": "33.1 ± 7.5"}, {"measurement": "doses at which effect on immobility was statistically significant vs vehicle", "setting": "Sprague Dawley rats", "value": "30 mg/kg and 60 mg/kg"}]}]}
